Test results: US20190298735A1, “TREATMENT AND PREVENTION OF CLOSTRIDIUM DIFFICILE COLITIS USING MISOPROSTOL” (Vanderbilt University, priority 2016, published 2019)
Entries after “also recorded” stand apart in the source; their conditions may differ.

Assays:
esophageal ulcer = conditions: rats, cited from earlier work
[1] = system: human esophageal epithelial (HET-1A) cells; conditions: cited from earlier work
NAP1/BI/027 strain M7404 = assay: Misoprostol in acute CDI mouse model (survival, FITC-dextran intestinal permeability, diarrhea); format: in vivo, mice; conditions: for CDI severity: mice, M7404 spores, daily misoprostol IP vs vehicle
C. difficile strain 630 = assay: Colonization levels of C. difficile in the cecum of infected mice; format: in vivo; conditions: strain 630, 96 hr post infection, misoprostol vs vehicle
Protocol: FIG. 5. […] (A) Mice were infected by gavage with 10^6 spores of the NAP1/BI/027 strain […] and treated daily with the PGE analogue misoprostol (or vehicle) by intraperitoneal (IP) injection. n=5 per group. (B) To assess intestinal permeability mice were infected with […] of […] and given misoprostol 20 μg/mouse by IP injection 30 min before infection, 24 hr post-infection and at the time of FITC-dextran treatment. 2 d post infection mice were gavaged with FITC-dextran or vehicle control, then euthanized 4 hr later and concentrations of FITC-dextran in plasma were determined (*P<0.05). (C) Colonization levels of C. difficile strain 630 in the cecum for infected mice exposed to misoprostol or vehicle 96 hr post infection (*P<0.05).

strain M7404 = assay: Misoprostol in indomethacin-exposed CDI mice; format: in vivo, Female C57BL/6 mice
PGE2 EP receptors = conditions: cited from earlier work
[2] = human; cited from earlier work
[3] = target: T1, prostaglandin E2 receptor 4 (EP4) receptor (Mus musculus, UniProt P32240); conditions: oral administration, mouse model; cited from earlier work
T1 construct: endogenous in cells; host or cells: mouse, in vivo (colon tissue); result quoted from Watanabe et al. 2015
T1 sequence (P32240 whole entry): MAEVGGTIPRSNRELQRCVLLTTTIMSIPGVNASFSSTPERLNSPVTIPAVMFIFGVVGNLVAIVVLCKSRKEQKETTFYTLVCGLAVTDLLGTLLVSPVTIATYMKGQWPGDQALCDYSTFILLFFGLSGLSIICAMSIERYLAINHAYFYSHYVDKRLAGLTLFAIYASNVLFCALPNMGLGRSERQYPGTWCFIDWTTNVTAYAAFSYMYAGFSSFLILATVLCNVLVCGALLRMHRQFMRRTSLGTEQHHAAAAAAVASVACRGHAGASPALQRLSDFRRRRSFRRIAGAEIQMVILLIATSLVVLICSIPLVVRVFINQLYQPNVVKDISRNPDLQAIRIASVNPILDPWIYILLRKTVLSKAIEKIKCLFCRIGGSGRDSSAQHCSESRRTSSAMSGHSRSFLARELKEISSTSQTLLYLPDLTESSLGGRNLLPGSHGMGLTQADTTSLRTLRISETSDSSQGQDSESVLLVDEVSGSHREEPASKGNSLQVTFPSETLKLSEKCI

[4] = target: T1, prostaglandin E2 receptor 4 (EP4) receptor; conditions: another mouse model, oral administration; cited from earlier work
[5] = mice; cited from earlier work
[6] = system: NAP1 C. difficile strain M7404; format: in vivo, C57BL/6 mice; conditions: mice, NSAID given before or after infection, clinical NAP1/027 isolate; indomethacin 10 mg/kg gavage, ibuprofen 5 mg/kg in drinking water
C. difficile [7] = assay: Tissue PGE2 (ELISA) and histological colitis score in C. difficile infected mice treated with indomethacin; format: in vivo; conditions: for tissue damage and acute inflammation (colitis): blinded histological score: edema, neutrophilic inflammation, epithelial damage; for tissue PGE2 levels: indomethacin gavage once daily until day +4, ELISA
Protocol: FIG. 3. […] (A) Mice were infected with C. difficile and treated with indomethacin by gavage once daily starting on the day of infection until mice were euthanized on day +4. Tissue PGE2 concentrations were measured by ELISA. n=5 mice per group. (B) Histological assessment of colitis was performed in a blinded fashion. The score incorporates edema, neutrophilic inflammation, and epithelial damage. (C and D) Tissue cytokine and chemokine concentrations were measured by ELISA. n=5 mice per group. *P<0.05.

C. difficile [8] = conditions: C. difficile-infected mice, cited from earlier work

Structure (SMILES): CCCC[C@](C)(O)C/C=C/[C@H]1[C@H](O)CC(=O)[C@@H]1CCCCCCC(=O)OC (racemic) [misoprostol, (11a, 13E)-(±)-11,16-dihydroxy-16-methyl-9-oxoprost-13-en-1-oic acid methyl ester]
- CREB phosphorylation, VEGF expression and angiogenesis (esophageal ulcer; esophageal ulcer): enhanced phosphorylation of CREB, stimulated VEGF expression and angiogenesis
- esophageal ulcer healing (esophageal ulcer): accelerated esophageal ulcer healing
- VEGF expression [1]: stimulated VEGF expression
- increase of intracellular cAMP levels [1]: 163 fold
- phosphorylation of CREB [1]: induced phosphorylation of CREB
- diarrhea (NAP1/BI/027 strain M7404; infected mice, misoprostol vs vehicle/placebo): reduced diarrhea; also recorded: fared significantly better
- CDI severity (NAP1/BI/027 strain M7404): reduced CDI severity
- CDI severity (NAP1/BI/027 strain M7404; listed as Misoprostol): reduces CDI severity
- death / survival (NAP1/BI/027 strain M7404; mouse, in vivo, ip): prevented death; also recorded: fared significantly better
- C. difficile colonization levels (C. difficile strain 630): reduced C. difficile colonization levels
- CDI in indomethacin-exposed mice (strain M7404; INDO 10 mg/kg days −2 and −1, 1×10^4 spores M7404, 20 mg misoprostol i.p. daily): improves CDI
- survival, Log-rank (Mantel-Cox) test (strain M7404; mouse, in vivo, ip): not statistically significant
- binding to PGE2 EP receptors (PGE2 EP receptors): binds all 4 of the PGE2 EP receptors
- protection of colonic mucosa against mucosal insults [2]: potently protects human colonic mucosa

Structure (SMILES): Cc1cccc([C@@H](C)[C@H](O)/C=C/[C@@H]2[C@@H]3[C@H](C[C@H]2O)O/C(=C\CCCc2nn[nH]n2)C3(F)F)c1 [KAG-308]
- onset of dextran sulfate sodium-induced colitis and mucosal healing [3]: suppressed onset of dextran sulfate sodium-induced colitis and promoted mucosal healing
- colorectal carcinogenesis [4]: prevented colorectal carcinogenesis

Structure (SMILES): CCCCC[C@H](O)/C=C/[C@H]1[C@H](O)CC(=O)[C@@H]1C/C=C\CCCC(=O)O [PGE2, Prostaglandin E2]
- colitis induced by DSS [5]: significantly improved colitis

Structure (SMILES): Nc1ncnc2c1ncn2[C@@H]1O[C@@H]2COP(O)(=S)O[C@H]2[C@H]1O (some centres unmarked) [Rp-cAMP]
- action on the effects of misoprostol (cAMP, CREB phosphorylation, VEGF expression) [1]: blocked

Structure (SMILES): Nc1ncnc2c1ncn2[C@@H]1O[C@@H]2COP(O)(=S)O[C@H]2[C@H]1O (some centres unmarked) [Sp-cAMP]
- action on the effects of misoprostol (cAMP, CREB phosphorylation, VEGF expression) [1]: mimicked

Structure (SMILES): COc1ccc2c(c1)c(CC(=O)O)c(C)n2C(=O)c1ccc(Cl)cc1 [indomethacin]
- mortality in CDI [6]: higher mortality
- tissue damage and acute inflammation (colitis) (C. difficile [7]): induced more tissue damage and acute inflammation
- tissue damage and acute inflammation (colitis) (C. difficile [7]; listed as Indomethacin): worsens colitis
- tissue PGE2 levels (C. difficile [7]): suppressed tissue PGE2 levels
- tissue PGE2 levels (C. difficile [7]; listed as Indomethacin): inhibits PGE2 production

Structure (SMILES): CN[C@H](CC(C)C)C(=O)N[C@H]1C(=O)N[C@@H](CC(N)=O)C(=O)N[C@H]2C(=O)N[C@H]3C(=O)N[C@H](C(=O)N[C@H](C(=O)O)c4cc(O)cc(O)c4-c4cc3ccc4O)[C@H](O)c3ccc(c(Cl)c3)Oc3cc2cc(c3O[C@@H]2O[C@H](CO)[C@@H](O)[C@H](O)[C@H]2O[C@H]2C[C@](C)(N)[C@H](O)[C@H](C)O2)Oc2ccc(cc2Cl)[C@H]1O [vancomycin]
- relapse of colitis after treatment (C. difficile [8]; with increased colonization levels and toxin production): gradual return of colitis by day 16
- resolution of colitis (C. difficile [8]): accelerates resolution of colitis
